The assay deals with C-reactive protein. The assay is described as follows: Randomized, double-blind, placebo controlled, forced dose-escalation, multicenter study; hs-CRP blood levels. It is filed as in vivo, human. The source says:
The study was a randomized, double-blind, placebo controlled, forced dose-escalation, multicenter study.
Inclusion Criteria • Patients were at least 18 years of age and ≤80 years of age at the time of informed consent; • Women of childbearing potential must have a negative urine pregnancy test at screening and visit 4.
Exclusion Criteria • Patients who were pregnant, planning to become pregnant during the study, or nursing • Patients who had with clinically significant electrocardiographic abnormalities at visit 1 or visit 4; • Patients who had body mass index>45 kg/m2 at visit 1; • Patients who had weight change of >5% of initial body weight between visits 1 and 4 (randomization); • Patients who had poorly controlled diabetes defined as a hemoglobin A1c>9.5% prior to visit 4 (randomization); • Patients who had evidence of hepatic disease (ALT or AST greater than 2.0 ULN, bilirubin greater than 1.5 ULN, or cirrhosis) at visit 1; • Patients who had renal dysfunction defined as glomerular filtration rate (GFR)<60 mL/min/1.73 m2 at visit 1; • Patients who had hypothyroidism that was not treated or not stable for at least 6 months prior to study entry; • Patients who had poorly controlled hypertension defined as a mean systolic blood pressure above 160 mm Hg and/or diastolic blood pressure above 100 mmHg at visit 1.
Following signature of informed consent, 164 patients received 1000 mg placebo three times daily with meals in a single-blind manner for a dietary-controlled baseline period of 6 to 8 weeks. From the sample of eligible subjects who completed the 6 to 8 week dietary-controlled baseline period, 71 subjects (22 received placebo and 49 received 1-MNA chloride) meeting all inclusion and no exclusion criteria were randomized in a double-blind manner ([…]) to the treatment arm. The treatment periods were: weeks 1 and 2 two 500 mg tablets administered three times daily with meals (total daily dose 3000 mg); weeks 3 to 14 two 1000 mg tablets administered three times daily with meals (total daily dose 6000 mg). Down titration to 3000 mg daily was allowed in the event that a subject could not tolerate the 6000 mg daily treatment for the stipulated period. Under this scenario, the down-titrated subject remained on the tolerated dose for the duration of the trial. hs-CRP blood levels were evaluated during the baseline period, upon randomization and throughout the active treatment period. All blood samples were collected following a 12-hour fast. Throughout the study, the subjects were required to adhere to a heart-healthy diet and abstain from/minimize ethyl alcohol intake. Safety and tolerability were assessed throughout the trial through the evaluation of physical exams, electrocardiograms, routine hematology ad blood chemistry testing, vital signs and adverse events.
In the analysis, adjusted geometric mean percent change was obtained by exponentiating the adjusted mean from the ANCOVA model, then subtracting 1 and multiplying by 100. Bounds of the 95% confidence intervals were obtained similarly. Based on the ANCOVA model of the change in log-transformed CRP including treatment group and log-transformed baseline value, the change in CRP level in blood in this study was approximately −17% relative to placebo.

[1] abbreviates: end of study, oral 3000 mg daily weeks 1-2, 6000 mg daily weeks 3 to 14, n 45.

These results are taken from patent publication US20190282560A1, “1-Methylnicotinamide for the Treatment of Diseases Associated With C-Reactive Protein” (Pharmena S.A., priority 2016, published 2019).

As to `C[n+]1cccc(C(N)=O)c1` [1-MNA chloride, 1-methylnicotinamide], for the setting “baseline to end of study, 3000 then 6000 mg daily, 14 weeks”, the “Lowering of blood or serum CRP level from baseline” value was “about 16%”. Where the note is “baseline to end of study, ANCOVA on log-transformed CRP, 3000 then 6000 mg daily, 14 weeks”, the “Adjusted geometric mean percent change from baseline in C-reactive protein” value is −15.66%. The “C-reactive protein, Baseline, Geometric mean” value (baseline, before double-blind treatment, n 49) stood at 2.9 mg/L. In addition, the “C-reactive protein, Baseline, Mean ± SD” value (baseline, before double-blind treatment, patients with serum triglycerides 200-500 mg/dL, n 49) amounted to 4.0 ± 5.4 mg/L. Under setting [1], the “C-reactive protein, End of study, Geometric mean” value came to 2.4 mg/L and the “C-reactive protein, End of study, Mean ± SD” value came to 3.3 ± 3.2 mg/L. The “C-reactive protein, Change from baseline to end of study, Mean ± SD” value (oral 3000 mg daily weeks 1-2, 6000 mg daily weeks 3 to 14, n 45) is -0.8 ± 4.7 mg/L.
